Assay results as given in patent publication US9211252B2, “Increased drug loading capacity of polymeric material” (Medtronic, Inc., priority 2007, dated 2015).
Entries after “also recorded” stand apart in the source; their conditions may differ. Like-named read-outs stand apart in the source and are kept apart here.

Columns and labels:
[1] = Solvent swelling of silicone boots; type: physicochemical; details: silicone boots placed in solvent for 2 hours; solvent ratios by volume
Procedure: The effect of various solvents to swell (as determined by % weight increase) silicone boots was determined. Silicone boots were weighed, placed in a solvent for 2 hours, and weighed again.
The solvent ratios in Table 1 are by volume. The ability to swell silicone by 30% or more is believed to be suitable for increasing the loading capacity of silicone. The ability to swell silicone by 50% or more is believed to be more suitable for increasing the loading capacity of silicone.

[2] = for increase in drug loading, pre-extracted relative to non-extracted silicone discs: 2 hour plus 24 hour extracted; for average drug loaded into silicone discs: 24 hr loading, HPLC of 25 mL extract
Procedure: One sheet was removed after 2 hours; the other was removed after 24. The sheets were allowed to dry for 24 hours.
Nine 1¼ inch discs were punched from each sheet of silicone. The discs (27) were separated into 9 jars (3 per jar). Each jar contained a drug loading solution. Three jars contained clonidine, three contained dexamethasone and three contained sulindac.
After stirring 24 hrs in solution, all the samples were removed, rinsed twice for approximately 10 seconds in a sufficient volume of methanol and allowed to dry overnight in open air on a drying rack. The samples were then stored until extraction in jars in a nitrogen purged foil bag.
Each sample was cut in half, and the half sample was weighed. Initially only the clonidine and sulindac samples were analyzed.
All samples were extracted in THF/ethanol 4:1 (15 mL) for 30 min; then re-extracted in THF/ethanol 4:1 (10 mL) for 20 min. The first and second extracts were combined in a volumetric flask and any additional volume was added to make exactly 25 mL of solution. These samples were stored in at 4° C. until analysis.
HPLC Analysis was performed using an Agilent 1100 stack. For dexamethasone, isocratic separation using acetonytrile:water (45:55) was performed. A Zorbax SB-Phenyl, 5 μm, 4.6×150 mm, column (Agilent Technologies, Inc.) was used at a column temperature of 30° C. The flow rate was 10 mL/min, with a run time of 15 minutes. Dexamethasone was detected by UV at 245 nm.
For sulindac, isocratic separation using 0.1% phosphoric acid in acetonitrile:water (38:62) was performed. A PRONTOSIL 120-5-C18-ace-EPS, 5 μm, 4.6×150 mm, column was used at a column temperature of 37° C. The autosampler temperature was 15° C. The flow rate was 1.0 mL/min, with a run time of 35 min. Sulindac was detected by UV at 285 nm. Injection volumes were 10-50 μL.
The autosample temperature was ambient temperature. Isocratic separation using a mobile phase A (MPA):mobile phase B (MPB) ratio of 52:48 was employed. MPA consisted of 2.2 gm 1-octanesulfonic acid, sodium salt for each liter of nanopure water. MPB was HPLC Grade Methanol. The flow rate was 1 mL/min, with a run time of 15 minutes. […] The injection volume was 10 μL

[3] = Solubility of drug in the loading solution; type: physicochemical; details: methanol/butyl acetate loading solution, extra 5 mL methanol added
[4] = Loading of minocycline and rifampin into pre-extracted and non-extracted silicone boots; type: physicochemical; details: for drug concentration in polymer: loading 1 hour in butyl acetate:methanol 85:15
Procedure: Molded, cured silicone (Dow-Q7 4850) boots designed to fit snuggly around Restore® implantable neurostimulators (Medtroinc, Inc.) were placed in a concentrated drug loading solution containing rifampin (30 mg/ml) and minocycline (15 mg/ml) in butyl acetate:methanol (85:15, by volume). The polymer was allowed to swell in this solution for one hour, rinsed and then dried overnight.
The efficiency of various solvents to extract material from cured silicone was tracked by determining the weight loss post-extraction. […] It was initially assumed that subjecting the polymer to drug loading should fulfill the same function as pre-extracting the material prior to drug loading.
One thought was that the existence of extractables in the loading solution might increase the solubility of the drugs in solution compared to solubility in the silicone, thus lowering the partitioning of drug into the silicone. Eight non-extracted silicone boots and 10 pre-extracted boots were drug loaded in separate loading solutions. Two additional pre-extracted silicone boots were then loaded in the formulation used to load the non-extracted boots. According to the hypothesis, the loading solution used for the non-extracted boots would theoretically contain higher levels of silicone extractables, and result in lower loading of the pre-extracted boots.

[5] = not pre-extracted with butyl acetate
[6] = pre-extracted with butyl acetate for 2 hours
[7] = pre-extracted with butyl acetate for 24 hours

With `CC(C)=O` [Acetone] the “% Weight Increase” value [1] was 15%.
For `CCCCOC(C)=O` [Butyl Acetate], the “% Weight Increase” value [1] was 73%.
For `ClC(Cl)Cl` [Chloroform], the “% Weight Increase” value [1] was 166%.
For `C1CCCCC1` [Cyclohexane], the “% Weight Increase” value [1] was 85%.
In the case of `C1CCCC1` [Cyclopentane], the “% Weight Increase” value [1] is reported as 62%.
With `CCOC(C)=O` [Ethyl acetate] the “% Weight Increase” value [1] was 54%.
For `CC(C)O` [Isopropyl alcohol], the “% Weight Increase” value [1] was 13%.
With `C1CCOC1` [THF] the “% Weight Increase” value [1] was 105%.
For `Cc1ccccc1` [Toluene], the “% Weight Increase” value [1] was 85%.
With `Clc1cccc(Cl)c1N=C1NCCN1` [clonidine] the “increase in drug loading, pre-extracted relative to non-extracted silicone discs” value [2] was ~6%, the “average drug loaded into silicone discs” value [2, 5] was 19.41 ± 0.20 µg/mL and the “average drug loaded into silicone discs” value [2, 6] was 20.59 ± 0.20 µg/mL. The “average drug loaded into silicone discs” value [2, 7] was 20.49 ± 0.22 µg/mL.
With `C[C@@H]1C[C@H]2[C@@H]3CCC4=CC(=O)C=C[C@]4(C)[C@@]3(F)[C@@H](O)C[C@]2(C)[C@@]1(O)C(=O)CO` [dexamethasone] the “solubility in loading solution” value [3] was “substantial insolubility; also recorded: did not seem to dissolve well”.
For `CO[C@H]1/C=C/O[C@@]2(C)Oc3c(C)c(O)c4c(O)c(c(/C=N/N5CCN(C)CC5)c(O)c4c3C2=O)NC(=O)/C(C)=C\C=C\[C@H](C)[C@H](O)[C@@H](C)[C@@H](O)[C@@H](C)[C@H](OC(C)=O)[C@@H]1C` [rifampin], the “drug concentration in polymer” value ([4]; non-extracted silicone boots) was 2.61 mg/g, the “drug concentration in polymer” value ([4]; silicone boots pre-extracted with butyl acetate) was 3.28 mg/g and the “increase in drug concentration, pre-extracted vs non-extracted” value ([4]; silicone boots, same lot) was 25.7%.
For `CC1=C(CC(=O)O)c2cc(F)ccc2/C1=C\c1ccc([S+](C)[O-])cc1` (stereo not drawn) [sulindac], the “increase in drug loading, pre-extracted relative to non-extracted silicone discs” value [2] was ~19%, the “average drug loaded into silicone discs” value [2, 5] was 1.56 ± 0.03 µg/mL and the “average drug loaded into silicone discs” value [2, 6] was 1.86 ± 0.06 µg/mL. For the same compound, the “average drug loaded into silicone discs” value [2, 7] was 1.88 ± 0.11 µg/mL.
